Measured values: patent publication US11938153B2, “Methods of treating T cell exhaustion by inhibiting or modulating T cell receptor signaling” (THE BOARD OF TRUSTEES OF THE LELAND STANFORD JUNIOR …, priority 2017, dated 2024)

Key:
GD2.28z.FKBP CAR = biological target: T1, GD2.28z.FKBP CAR (Homo sapiens, UniProt P62942, E32G/F37V/K106E/R72G); experiment: Regulation of GD2.28z.FKBP CAR surface expression by shield-1 (FACS); type: cell-based; conditions: adding or subtracting S1 in culture medium
T1 construct: expressed in transfected cells; host or cells: T cells, lentiviral transduction
T1 sequence (P62942 2-108 E32G/F37V/R72G/K106E): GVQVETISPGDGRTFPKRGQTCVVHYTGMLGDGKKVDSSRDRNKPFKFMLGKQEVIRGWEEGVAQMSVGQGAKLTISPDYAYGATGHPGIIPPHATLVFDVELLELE
Text: FIG. 1: Characterization of the GD2.28z.FKBP CAR. T cells were transduced with lentivirus encoding the GD2.28z.FKBP CAR on day 1 after activation and subsequently cultured with various concentrations of shield-1 in the growth medium. On day 7, CAR expression was quantified via FACS.

Her2.28z.FKBP = biological target: T2, Her2.28z.FKBP (Homo sapiens, UniProt P62942, E32G/F37V/K106E/R72G); experiment: Regulation of Her2.28z.FKBP CAR expression by shield-1 (protein L stain, FACS); type: cell-based; conditions: 0.1 uM or 1 uM, 24 hours after addition of drug
T2 construct: expressed in transfected cells; host or cells: T cells, lentiviral transduction
T2 sequence (P62942 2-108 E32G/F37V/R72G/K106E): as above
Protocol: The FKBP12 DD domain was fused to the far c-terminus of the Her2.28z CAR. T cells were transduced with lentivirus to express the Her2.28z.FKBP. […] 24 hours after addition of drug, CAR T cells were stained with protein L and CAR expression was assessed via FACS. Both the percentage of CAR+ cells (quantified in the histograms) as well as CAR MFI are increased upon incubation with either 0.1 uM or 1 uM Shield-1 (S1).

GD2.28z.FKBP CAR T cells [1] = experiment: Exhaustion phenotype of GD2.28z.FKBP CAR T cells after S1 removal (FACS); type: cell-based, human
Text: Since tonic signaling is highly dependent upon GD2-CAR receptor levels, precise control of CAR expression levels also precisely regulates levels of tonic signaling. Drug regulated control of levels of CAR expression therefore also allowed modulation of the duration and intensity of GD2.28z tonic signaling. […] This is most well illustrated by measuring levels of PD-1/TIM-3/LAG-3 triple expressing cell which is highly specific for dysfunctional, exhausted T cells. […] Similar results were obtained on day 14 for cells in which S1 was removed from culture medium on day 7 or day 10 (not shown).

GD2.28z.FKBP CAR T cells [2] = experiment: IL-2 secretion of GD2.28z.FKBP CAR T cells in co-culture with Nalm6 cells expressing GD2 (ELISA); type: cell-based, human
Protocol: Because phenotypic markers may not be entirely predictive of T cell function, we also performed functional experiments on CAR T cells provided transient drug exposure in culture. CAR T cells were washed, resuspended in media containing S1, and mixed at a 1:1 ratio with Nalm6 leukemic cells stably expressing surface GD2. Culture supernatants were harvested approximately 24 hours later and cytokine levels were evaluated via ELISA.
Similar to GD2.28z CAR that lacks a destabilization domain and therefore have persistent high levels of CAR signaling, cells expressing the GD2.28z.FKBP CAR that experienced continuous drug treatment (FIG. 4, grey bars) secreted minimal amounts of IL-2 on both day 10 and day 14 post-activation, consistent with T cell exhaustion.

[3] = test system: HA-GD2.28z.FKBP CAR T cells; experiment: Sorted PD-1/TIM-3/LAG-3 triple positive HA-GD2.28z.FKBP CAR T cells re-cultured with or without S1 (FACS, co-culture); type: cell-based, human
Text: Functional studies by several groups, including our lab have verified that co-expression of PD-1, TIM-3, and LAG-3 (triple positive, TP) denotes an exhausted cell subset that is highly dysfunctional. We thus sought to analyze whether cessation of tonic signaling in this cell subset could reverse their phenotype and restore their ability to secrete IL-2 in response to tumor antigen. […] On day 10 post-activation, HA-GD2.28z.FKBP CAR T cells that had experienced continuous S1 treatment were sorted in order to isolate a pure PD-1/TIM-3/LAG-3 exhausted population. “Triple positive” exhausted cells were then re-cultured either with or without S1 to test whether removal of tonic signaling could restore their function. FACS and co-culture assays were conducted 4 days later.

[4] = test system: HA-GD2.28z.FKBP CAR T cells; experiment: Western blot of CAR CD3-zeta phosphorylation (tonic signaling); type: cell-based, human; conditions: cultured in the absence of S1 (CAR Always OFF)
Text: This phenotype was also reversible, as indicated by the lack of CD3-zeta phosphorylation in DD-CAR T cells that were initially cultured with S1, but then had drug removed on day 7 of the culture (FIG. 16, CAR OFF D7).

HA-GD2.28z.FKBP = experiment: Exhaustion marker co-expression on HA-GD2.28z.FKBP CAR T cells; type: cell-based, human; conditions: upon removal of shield-1 from the culture medium
Protocol: When assessing IL-2 and IFNγ, cells were surface stained, then fixed and permeablized (eBioscience) prior to incubation with intracellular antibodies.
T cells were removed from culture, fixed in 2% PFA for 10 minutes at room temperature, pelleted and frozen at −80C. Upon thawing, each sample was barcoded with a 20-plex Pd harcoding kit (FIuidigm). Cell samples were then pooled and stained for surface marker expression with heavy-metal conjugated antibodies for 30 minutes at room temperature. Cells were then permeablized in methanol and subsequently stained with heavy metal-conjugated anti-human T-bet (4B10, Biolegend) and anti-human Blimp-1 (ROS195G, Biolegend) for 30 minutes at room temperature. Samples were run on a Helios mass cytometer (Fluidigm) and analyses were complete using Cytobank online software.
It was next determined whether the prevention or reversal of tonic signaling in HA-GD2.28z.FKBP-expressing CAR T cells altered their exhaustion phenotype.

NALM6-GL-GD2 = conditions: mice that received TMP
Protocol: At day 7 post-engraftment, 1-5×10^6 GD2.28z.DHFR or HA-GD2.28z.DHFR CAR+ T cells were infused intravenously.
Mice were then injected with either stabilizing drug or vehicle control every day thereafter.
To test this, antigen-bearing tumor cells were engrafted into NSG mice and subsequently infused 2-5E6 HA-GD2.28z.DHFR-expressing T cells. Mice were dosed with TMP everyday thereafter.

[5] = S1 removed day 7 or 10, read day 14, vs continuous S1

CC[C@H](C(=O)N1CCCC[C@H]1C(=O)O[C@H](CCc1ccc(OC)c(OC)c1)c1cccc(OCCN2CCOCC2)c1)c1cc(OC)c(OC)c(OC)c1 [shield-1]
regulation of CAR surface expression (GD2.28z.FKBP CAR): rapidly and dose-dependently regulated
CAR MFI (Her2.28z.FKBP): increased
percentage of CAR+ cells (Her2.28z.FKBP): increased
apoptosis (annexin V staining) (GD2.28z.FKBP CAR T cells [1]; [5]): prevention of apoptosis
memory markers (CD62L) (GD2.28z.FKBP CAR T cells [1]; [5]): maintenance of memory markers
canonical exhaustion marker expression (GD2.28z.FKBP CAR T cells [1]; S1 removed day 7 post-activation, read day 10): reverses canonical exhaustion marker expression to control levels
IL-2 secretion (GD2.28z.FKBP CAR T cells [2]; S1 removed day 7, vs continuous S1): superior IL-2 secretion
IL-2 secretion of exhausted T cells after rest (GD2.28z.FKBP CAR T cells [2]; S1 removed day 10, rested 4 days, day 14 ELISA): reinvigorated
augmentation of IL-2 secretion (GD2.28z.FKBP CAR T cells [2]; cultured without S1, S1 added back just prior to co-culture, vs continuous S1): 5-10 fold
expression of exhaustion markers ([3]; 4 days without S1, CD4+ and CD8+ CAR T cells): far less expression of exhaustion markers
increase in IL-2 secretion ([3]; removal of S1 vs continuous S1 days 10-14): 2 fold
CD3-zeta phosphorylation [4]: absent
co-expression of canonical exhaustion markers (HA-GD2.28z.FKBP): rapidly downregulated

nivolumab: anti-PD-1 checkpoint inhibitor
IL-2 secretion (GD2.28z.FKBP CAR T cells [2]; continuous S1 + nivolumab, day 10, sustained until day 14): only modest augmentation of IL-2 secretion

COc1cc(Cc2cnc(N)nc2N)cc(OC)c1OC [trimethoprim]
CD69 surface expression of CAR T cells (NALM6-GL-GD2): higher CD69 surface expression
